US8242275B2, “Bicyclic pyrazole compounds as antibacterial agents” (Janssen Pharmaceutica NV, priority 2005, dated 2012)
≈ marks a conversion by molar mass, not a printed value.

Assays:
Assay in all cases: In vitro antibacterial activity (MIC assay), broth microdilution
Assay type in all cases: cell-based
[1] = system: E. coli KL-16 (GSC strain 4245); conditions: Escherichia coli
Method: (§1) Minimal inhibitory concentration (MIC) has been an indicator of in vitro antibacterial activity widely used in the art. The in vitro antibacterial activity of the compounds was determined by the broth microdilution method described by the National Committee for Clinical Laboratory Standards (NCCLS) in the NCCLS Document M7-A5, Vol. 20, No. 2, “Methods for Dilution Antimicrobial Susceptibility Test for Bacteria that Grow Aerobically—Fifth Edition”, which is incorporated herein by reference.
(§2) In this method, an aliquot of test compound from an 11-point series of 2-fold serial dilutions of compounds in 100% DMSO was added to wells in microdilution plates. The test organisms were prepared by adjusting the turbidity of actively growing broth cultures so that the final concentration of test organism after addition to wells with or without compounds was approximately 5×10^5 CFU/mL.
(§3) Following inoculation of the microdilution plates, the plates were incubated at 35° C. for 16-24 h and then scored for bacterial growth. […] The amount of growth in the wells containing the test compound was compared with the amount of growth in the growth-control wells (no test compound used) in each plate, and with the amount of growth in the wells containing control compounds (such as ciprofloxacin). Compounds of the present invention were tested against several bacterial strains. The MIC values (in μg/mL) are presented in Table 1 for Gram-negative (E. coli KL-16 (GSC strain 4245); data marked as (*) was obtained with E. coli ATCC25922) and Gram-positive bacteria (S. aureus ATCC13709; S. pneumoniae ATCC49619).

S. pneumoniae ATCC49619 = conditions: Streptococcus pneumoniae, ATCC49619; read-out: S. pneumoniae ATCC49619 MIC
Method: as §1, §2, §3

S. aureus ATCC13709 = conditions: Staphylococcus aureus, ATCC13709; read-out: S. aureus ATCC13709 MIC
Method: as §1, §2, §3

MIC [1]	MIC (S. pneumoniae ATCC49619)	MIC (S. aureus ATCC13709)	Structure (SMILES)
> 128 µg/mL	16 µg/mL (≈ 32.2 µM)	1 µg/mL (≈ 2.01 µM)	COc1ccc2nccc(-n3cc4c(n3)CCC(NCC(=O)Nc3ccc(Cl)c(Cl)c3)C4)c2c1 (stereo not drawn) [Example 62, N-(3,4-Dichloro-phenyl)-2-[2-(6-methoxy-quinolin-4-yl)-4,5,6,7-tetrahydro-2H-indazol-5-ylamino]-acetamide]
> 128 µg/mL	> 128 µg/mL	8 µg/mL (≈ 16.4 µM)	Cc1cc(-n2cc3c(n2)CCC(NC(=O)c2ccc4c(c2)NC(=O)CS4)C3)c2cc(F)ccc2n1 (stereo not drawn) [Example 82, 3-Oxo-3,4-dihydro-2H-benzo[1,4]thiazine-6-carboxylic acid [2-(6-fluoro-2-methyl-quinolin-4-yl)-4,5,6,7-tetrahydro-2H-indazol-5-yl]-amide]
> 128 µg/mL	64 µg/mL (≈ 113 µM)	16 µg/mL (≈ 28.3 µM)	COc1ccc2nccc(-n3ncc4c3CCC(NC(=O)c3cc5c(cc3Br)SCC(=O)N5)C4)c2c1 (stereo not drawn) [Example 98, 7-Bromo-3-oxo-3,4-dihydro-2H-benzo[1,4]thiazine-6-carboxylic acid [1-(6-methoxy-quinolin-4-yl)-4,5,6,7-tetrahydro-1H-indazol-5-yl]-amide]
> 128 µg/mL	8 µg/mL (≈ 18.6 µM)	1 µg/mL (≈ 2.32 µM)	COc1ccc2nccc(-n3cc4c(n3)CCC(NC(=O)/C=C/c3cccs3)C4)c2c1 (stereo not drawn) [Example 30, N-[2-(6-Methoxy-quinolin-4-yl)-4,5,6,7-tetrahydro-2H-indazol-5-yl]-3-thiophen-2-yl-acrylamide]
> 128 µg/mL	4 µg/mL (≈ 9.42 µM)	1 µg/mL (≈ 2.36 µM)	COc1ccc2nccc(-n3cc4c(n3)CCC(NC(=O)/C=C/c3ccccc3)C4)c2c1 (stereo not drawn) [Example 29, N-[2-(6-Methoxy-quinolin-4-yl)-4,5,6,7-tetrahydro-2H-indazol-5-yl]-3-phenyl-acrylamide]
> 128 µg/mL	32 µg/mL (≈ 64.5 µM)	2 µg/mL (≈ 4.03 µM)	COc1ccc2nccc(-n3cc4c(n3)CCC(NCC(=O)Nc3cccc(C(F)(F)F)c3)C4)c2n1 (stereo not drawn) [Example 122, 2-[2-(6-Methoxy-[1,5]naphthyridin-4-yl)-4,5,6,7-tetrahydro-2H-indazol-5-ylamino]-N-(3-trifluoromethyl-phenyl)-acetamide]
> 128 µg/mL	2 µg/mL (≈ 4.7 µM)	0.25 µg/mL (≈ 0.588 µM)	COc1ccc2nccc(-n3cc4c(n3)CCC(NC(=O)/C=C/c3ccccc3)C4)c2n1 (stereo not drawn) [Example 10, N-[2-(6-Methoxy-[1,5]naphthyridin-4-yl)-4,5,6,7-tetrahydro-2H-indazol-5-yl]-3-phenyl-acrylamide]
128 µg/mL (≈ 301 µM)	2 µg/mL (≈ 4.71 µM)	1 µg/mL (≈ 2.36 µM)	COc1ccc2nccc(-n3cc4c(n3)CCC(NC/C(C)=C/c3ccccc3)C4)c2c1 (stereo not drawn) [Example 56, [2-(6-Methoxy-quinolin-4-yl)-4,5,6,7-tetrahydro-2H-indazol-5-yl]-(2-methyl-3-phenyl-allyl)-amine]

More lines, now with the values behind:

Structure (SMILES)	MIC [1]	MIC (S. pneumoniae ATCC49619)	MIC (S. aureus ATCC13709)
COc1ccc2nccc(-n3cc4c(n3)CCC(NC(=O)c3ccc5c(c3)OCCCO5)C4)c2n1 (stereo not drawn) [Example 3, 3,4-Dihydro-2H-benzo[b][1,4]dioxepine-7-carboxylic acid [2-(6-methoxy-[1,5]naphthyridin-4-yl)-4,5,6,7-tetrahydro-2H-indazol-5-yl]-amide]	> 128 µg/mL	4 µg/mL (≈ 8.48 µM)	1 µg/mL (≈ 2.12 µM)
COc1ccc2nccc(-n3cc4c(n3)CCC(NCc3cc(OC)c(OC)cc3F)C4)c2n1 (stereo not drawn) [Example 88, (2-Fluoro-4,5-dimethoxy-benzyl)-[2-(6-methoxy-[1,5]naphthyridin-4-yl)-4,5,6,7-tetrahydro-2H-indazol-5-yl]-amine]	> 128 µg/mL	8 µg/mL (≈ 17.3 µM)	4 µg/mL (≈ 8.63 µM)
COc1ccc2nccc(-n3cc4c(n3)CCC(NC(=O)c3cc5cc(Br)ccc5[nH]3)C4)c2c1 (stereo not drawn) [Example 76, 5-Bromo-1H-indole-2-carboxylic acid [2-(6-methoxy-quinolin-4-yl)-4,5,6,7-tetrahydro-2H-indazol-5-yl]-amide]	> 128 µg/mL	> 128 µg/mL	2 µg/mL (≈ 3.87 µM)
COc1ccc2nccc(-n3cc4c(n3)CCC(NCc3ccc(N(C)C)cc3)C4)c2n1 (stereo not drawn) [Example 39, (4-Dimethylamino-benzyl)-[2-(6-methoxy-[1,5]naphthyridin-4-yl)-4,5,6,7-tetrahydro-2H-indazol-5-yl]-amine]	> 128 µg/mL	1 µg/mL (≈ 2.33 µM)	0.5 µg/mL (≈ 1.17 µM)
COc1ccc2nccc(-n3cc4c(n3)CCC(NC(=O)c3cc5c(cc3F)OCCO5)C4)c2n1 (stereo not drawn) [Example 2, 7-Fluoro-2,3-dihydro-benzo[1,4]dioxine-6-carboxylic acid [2-(6-methoxy-[1,5]naphthyridin-4-yl)-4,5,6,7-tetrahydro-2H-indazol-5-yl]-amide]	> 128 µg/mL	8 µg/mL (≈ 16.8 µM)	0.5 µg/mL (≈ 1.05 µM)
COc1ccc2nccc(-n3cc4c(n3)CCC(NC(=O)c3ccc(C)c([N+](=O)[O-])c3)C4)c2n1 (stereo not drawn) [Example 110, N-[2-(6-Methoxy-[1,5]naphthyridin-4-yl)-4,5,6,7-tetrahydro-2H-indazol-5-yl]-4-methyl-3-nitro-benzamide]	> 128 µg/mL	8 µg/mL (≈ 17.4 µM)	0.25 µg/mL (≈ 0.545 µM)
COc1ccc2nccc(-n3cc4c(n3)CCC(NCc3cc5c(cc3F)OCCO5)C4)c2c1 (stereo not drawn) [Example 51, (7-Fluoro-2,3-dihydro-benzo[1,4]dioxin-6-ylmethyl)-[2-(6-methoxy-quinolin-4-yl)-4,5,6,7-tetrahydro-2H-indazol-5-yl]-amine]	> 128 µg/mL	1 µg/mL (≈ 2.17 µM)	1 µg/mL (≈ 2.17 µM)
COc1ccc2nccc(-n3cc4c(n3)CCC(NC(=O)/C=C/c3cc([N+](=O)[O-])ccc3Cl)C4)c2n1 (stereo not drawn) [Example 94, 3-(2-Chloro-5-nitro-phenyl)-N-[2-(6-methoxy-[1,5]naphthyridin-4-yl)-4,5,6,7-tetrahydro-2H-indazol-5-yl]-acrylamide]	> 128 µg/mL	> 128 µg/mL	2 µg/mL (≈ 3.96 µM)
COc1ccc2nccc(-n3cc4c(n3)CCC(NC(=O)c3cc(F)c5c(c3)OCCO5)C4)c2n1 (stereo not drawn) [Example 127, 8-Fluoro-2,3-dihydro-benzo[1,4]dioxine-6-carboxylic acid [2-(6-methoxy-[1,5]naphthyridin-4-yl)-4,5,6,7-tetrahydro-2H-indazol-5-yl]-amide]	> 128 µg/mL	8 µg/mL (≈ 16.8 µM)	0.5 µg/mL (≈ 1.05 µM)
COc1ccc2nccc(-n3cc4c(n3)CCC(NCC(=O)Nc3cccc(Cl)c3)C4)c2n1 (stereo not drawn) [Example 123, N-(3-Chloro-phenyl)-2-[2-(6-methoxy-[1,5]naphthyridin-4-yl)-4,5,6,7-tetrahydro-2H-indazol-5-ylamino]-acetamide]	> 128 µg/mL	> 128 µg/mL	1 µg/mL (≈ 2.16 µM)
COc1ccc2nccc(-n3cc4c(n3)CCC(NC(=O)c3cc5c(F)cccc5s3)C4)c2c1 (stereo not drawn) [Example 24, 4-Fluoro-benzo[b]thiophene-2-carboxylic acid [2-(6-methoxy-quinolin-4-yl)-4,5,6,7-tetrahydro-2H-indazol-5-yl]-amide]	> 128 µg/mL	4 µg/mL (≈ 8.46 µM)	< 0.125 µg/mL
COc1ccc2nccc(-n3cc4c(n3)CCC(NC(=O)c3cc(F)c5c(c3)OCCO5)C4)c2c1 (stereo not drawn) [Example 128, 8-Fluoro-2,3-dihydro-benzo[1,4]dioxine-6-carboxylic acid [2-(6-methoxy-quinolin-4-yl)-4,5,6,7-tetrahydro-2H-indazol-5-yl]-amide]	> 128 µg/mL	8 µg/mL (≈ 16.9 µM)	2 µg/mL (≈ 4.22 µM)
COc1ccc2nccc(-n3cc4c(n3)CCC(NC(=O)c3cc(F)c(Cl)cc3Cl)C4)c2n1 (stereo not drawn) [Example 125, 2,4-Dichloro-5-fluoro-N-[2-(6-methoxy-[1,5]naphthyridin-4-yl)-4,5,6,7-tetrahydro-2H-indazol-5-yl]-benzamide]	> 128 µg/mL	8 µg/mL (≈ 16.4 µM)	0.25 µg/mL (≈ 0.514 µM)
COc1ccc2nccc(-n3cc4c(n3)CCC(NC(=O)c3ccc(OC)c([N+](=O)[O-])c3)C4)c2n1 (stereo not drawn) [Example 119, 4-Methoxy-N-[2-(6-methoxy-[1,5]naphthyridin-4-yl)-4,5,6,7-tetrahydro-2H-indazol-5-yl]-3-nitro-benzamide]	> 128 µg/mL	8 µg/mL (≈ 16.9 µM)	4 µg/mL (≈ 8.43 µM)
COc1ccc2nccc(-n3cc4c(n3)CCC(NC(=O)c3ccc5c(c3)OCCO5)C4)c2c1 (stereo not drawn) [Example 16, 2,3-Dihydro-benzo[1,4]dioxine-6-carboxylic acid [2-(6-methoxy-quinolin-4-yl)-4,5,6,7-tetrahydro-2H-indazol-5-yl]-amide]	> 128 µg/mL	8 µg/mL (≈ 17.5 µM)	2 µg/mL (≈ 4.38 µM)
COc1ccc2nccc(-n3ncc4c3CCC(NC(=O)c3cc5c(cc3C(F)(F)F)SCC(=O)N5)C4)c2c1 (stereo not drawn) [Example 99, 3-Oxo-7-trifluoromethyl-3,4-dihydro-2H-benzo[1,4]thiazine-6-carboxylic acid [1-(6-methoxy-quinolin-4-yl)-4,5,6,7-tetrahydro-1H-indazol-5-yl]-amide]	> 128 µg/mL	> 128 µg/mL	2 µg/mL (≈ 3.61 µM)
COc1ccc2nccc(-n3cc4c(n3)CCC(NCC(=O)Nc3ccccc3)C4)c2n1 (stereo not drawn) [Example 59, 2-[2-(6-Methoxy-[1,5]naphthyridin-4-yl)-4,5,6,7-tetrahydro-2H-indazol-5-ylamino]-N-phenyl-acetamide]	128 µg/mL (≈ 299 µM)	8 µg/mL (≈ 18.7 µM)	1 µg/mL (≈ 2.33 µM)
